What was measured:
[1] = biological target: T1, Somatostatin receptor type 4 (Homo sapiens, UniProt P31391); experiment: Displacement of [125I]-Tyr-SRIF from recombinant human SST4 receptor expressed in CHOK1 cell membranes after 90 mins by gamma counting method
[2] = biological target: T2, Somatostatin receptor type 2 (Homo sapiens, UniProt P30874); experiment: Displacement of [125I]-Tyr-SRIF from recombinant human SST2A receptor expressed in CHOK1 cell membranes after 90 mins by gamma counting method
[3] = biological target: T1, Somatostatin receptor type 4; experiment: Displacement of 3-[125I]iodotyrosyl25-somatostatin-28 from recombinant human SST4 receptor expressed in CHOK1 cell membranes after 45 mins by scintillation counting method
[4] = biological target: T2, Somatostatin receptor type 2; experiment: Displacement of 3-[125I]iodotyrosyl25-somatostatin-28 from recombinant human SST2 receptor expressed in CHOK1 cell membranes after 45 mins by scintillation counting method
[5] = biological target: Somatostatin receptor type 3 (Homo sapiens, UniProt P32745); experiment: Displacement of [125I]-Tyr-SRIF from SST3 receptor (unknown origin) after 90 mins by gamma counting method
[6] = biological target: Somatostatin receptor type 5 (Homo sapiens, UniProt P35346); experiment: Displacement of [125I]-Tyr-SRIF from SST5 receptor (unknown origin) after 90 mins by gamma counting method
[7] = biological target: T1, Somatostatin receptor type 4; experiment: Agonist activity at recombinant human SST4 receptor expressed in CHOK1 cell membranes assessed as inhibition of forskolin-stimulated cAMP accumulation measured after 2.5 to 20 hrs by TR-FRET assay; format: functional, cell-based
[8] = biological target: Somatostatin receptor type 1 (Homo sapiens, UniProt P30872); experiment: Displacement of [125I]-Tyr-SRIF from SST1 receptor (unknown origin) after 90 mins by gamma counting method
Homo sapiens [9] = species on record: Homo sapiens; experiment: Selectivity ratio of Ki for displacement of [125I]-Tyr-SRIF from SST1 receptor (unknown origin) to Ki for displacement of [125I]-Tyr-SRIF from recombinant human SST4 receptor expressed in CHOK1 cell membranes
Homo sapiens [10] = species on record: Homo sapiens; experiment: Selectivity ratio of Ki for displacement of [125I]-Tyr-SRIF from recombinant human SST2A receptor expressed in CHOK1 cell membranes to Ki for displacement of [125I]-Tyr-SRIF from recombinant human SST4 receptor expressed in CHOK1 cell membranes
Homo sapiens [11] = species on record: Homo sapiens; experiment: Selectivity ratio of Ki for displacement of [125I]-Tyr-SRIF from SST3 receptor (unknown origin) to Ki for displacement of [125I]-Tyr-SRIF from recombinant human SST4 receptor expressed in CHOK1 cell membranes
Homo sapiens [12] = species on record: Homo sapiens; experiment: Selectivity ratio of Ki for displacement of [125I]-Tyr-SRIF from SST5 receptor (unknown origin) to Ki for displacement of [125I]-Tyr-SRIF from recombinant human SST4 receptor expressed in CHOK1 cell membranes
[13] = biological target: T2, Somatostatin receptor type 2; experiment: Displacement of [125I]-LTT-SRIF-28 from recombinant human SST2 receptor expressed in CHO cell membranes after 60 mins by scintillation counting method

T1 sequence (P31391 whole entry): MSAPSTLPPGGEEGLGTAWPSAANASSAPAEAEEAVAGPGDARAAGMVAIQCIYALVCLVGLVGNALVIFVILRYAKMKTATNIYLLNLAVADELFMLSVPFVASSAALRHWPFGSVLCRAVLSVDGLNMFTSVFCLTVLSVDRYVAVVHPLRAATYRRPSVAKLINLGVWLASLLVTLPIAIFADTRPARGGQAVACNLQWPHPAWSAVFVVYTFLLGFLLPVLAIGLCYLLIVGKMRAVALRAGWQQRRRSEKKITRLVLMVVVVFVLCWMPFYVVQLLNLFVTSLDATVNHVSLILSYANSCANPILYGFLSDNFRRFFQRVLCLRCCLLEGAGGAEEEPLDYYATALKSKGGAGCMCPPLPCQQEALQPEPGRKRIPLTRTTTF
T2 sequence (P30874 whole entry): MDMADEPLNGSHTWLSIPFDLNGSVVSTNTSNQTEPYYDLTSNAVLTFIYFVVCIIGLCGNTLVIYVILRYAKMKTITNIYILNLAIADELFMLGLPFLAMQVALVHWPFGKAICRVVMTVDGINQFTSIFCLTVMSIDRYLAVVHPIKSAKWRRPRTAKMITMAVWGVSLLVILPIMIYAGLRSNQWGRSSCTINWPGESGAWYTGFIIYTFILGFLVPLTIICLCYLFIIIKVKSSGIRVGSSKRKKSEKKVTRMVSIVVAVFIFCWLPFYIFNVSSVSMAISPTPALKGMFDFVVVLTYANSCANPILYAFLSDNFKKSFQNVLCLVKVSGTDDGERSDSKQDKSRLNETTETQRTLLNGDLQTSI
Chain of Somatostatin receptor type 3 (P32745 whole entry): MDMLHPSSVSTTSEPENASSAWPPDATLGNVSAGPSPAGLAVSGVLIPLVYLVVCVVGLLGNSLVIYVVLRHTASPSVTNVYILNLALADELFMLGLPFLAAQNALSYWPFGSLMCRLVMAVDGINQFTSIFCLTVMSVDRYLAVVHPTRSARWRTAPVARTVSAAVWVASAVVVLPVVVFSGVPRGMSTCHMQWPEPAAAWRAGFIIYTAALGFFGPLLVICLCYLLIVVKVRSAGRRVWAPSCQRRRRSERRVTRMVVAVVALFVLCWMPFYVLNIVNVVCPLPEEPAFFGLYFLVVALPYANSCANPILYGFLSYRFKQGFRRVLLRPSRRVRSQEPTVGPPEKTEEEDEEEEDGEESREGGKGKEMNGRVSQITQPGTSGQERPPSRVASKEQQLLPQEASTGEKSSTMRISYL
Chain of Somatostatin receptor type 1 (P30872 whole entry): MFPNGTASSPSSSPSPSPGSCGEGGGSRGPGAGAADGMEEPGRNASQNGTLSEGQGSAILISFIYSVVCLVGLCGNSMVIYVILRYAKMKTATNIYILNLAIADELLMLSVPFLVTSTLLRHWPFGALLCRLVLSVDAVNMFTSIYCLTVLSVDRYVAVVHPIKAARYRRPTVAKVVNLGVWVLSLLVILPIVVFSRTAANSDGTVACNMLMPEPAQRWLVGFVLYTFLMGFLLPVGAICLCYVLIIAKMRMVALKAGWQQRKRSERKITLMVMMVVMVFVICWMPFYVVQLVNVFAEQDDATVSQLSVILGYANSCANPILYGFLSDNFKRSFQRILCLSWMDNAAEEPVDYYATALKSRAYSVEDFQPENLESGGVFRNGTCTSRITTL
Chain of Somatostatin receptor type 5 (P35346 whole entry): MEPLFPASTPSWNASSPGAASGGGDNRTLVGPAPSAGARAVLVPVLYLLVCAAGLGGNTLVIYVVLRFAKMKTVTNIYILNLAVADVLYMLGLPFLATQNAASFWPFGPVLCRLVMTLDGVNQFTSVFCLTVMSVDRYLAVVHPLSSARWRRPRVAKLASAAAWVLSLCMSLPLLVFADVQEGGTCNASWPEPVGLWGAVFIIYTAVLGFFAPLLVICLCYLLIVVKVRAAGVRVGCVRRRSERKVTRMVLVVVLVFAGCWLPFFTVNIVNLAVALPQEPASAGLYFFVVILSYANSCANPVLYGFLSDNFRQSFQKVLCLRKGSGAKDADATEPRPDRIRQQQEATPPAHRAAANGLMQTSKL

Row | Structure (SMILES) | Ki [1] | Ki [2] | also measured
1 | Clc1ccc(Cc2nnc(CCc3c[nH]cn3)n2CCc2c[nH]c3ccccc23)cc1Cl | 4.8 µM | > 10 µM | –
2 | c1ccc(Cn2c(CCc3c[nH]c4ccccc34)nnc2C2CCNCC2)cc1 | > 10 µM | > 10 µM | –
3 | COC(=O)[C@H](CCCN=C(N)N)NC(=O)CCCc1c(-c2ccccc2)[nH]c2c(F)cc(F)cc12 | – | – | Ki [3]: 0.0007 µM; Ki [4]: 4.72 µM
4 | Clc1ccc(Cn2c(CCc3c[nH]cn3)nnc2CCc2c[nH]c3ccccc23)cc1Cl | 1.43 µM | > 10 µM | –
5 | NCCCc1nnc(Cc2ccc(Cl)c(Cl)c2)n1CCc1c[nH]c2ccccc12 | > 10 µM | – | –
6 | Clc1ccc(Cn2c(Cc3c[nH]c4ccccc34)nnc2C2CCNCC2)cc1Cl | > 10 µM | – | –
7 | Clc1ccc(Cc2nnc(C3CCNCC3)n2CCc2c[nH]c3ccccc23)cc1Cl | > 10 µM | – | –
8 | c1ccc(Cn2c(CCc3c[nH]cn3)nnc2Cc2c[nH]c3ccccc23)cc1 | > 10 µM | – | –
9 | Clc1ccc(Cc2nnc(CCc3c[nH]c4ccccc34)n2CCCc2c[nH]cn2)cc1Cl | 0.019 µM | > 10 µM | Ki [5]: 6.63 µM; Ki [6]: > 10 µM; EC50 [7]: 0.0068 µM; Ki [8]: 4.75 µM; Ratio Ki (Homo sapiens [9]): 250; Ratio Ki (Homo sapiens [10]): > 500; Ratio Ki (Homo sapiens [11]): 350; Ratio Ki (Homo sapiens [12]): > 500
10 | c1ccc(CCn2c(CCc3c[nH]cn3)nnc2CCc2c[nH]c3ccccc23)cc1 | 2.03 µM | > 10 µM | –
11 | NCCCc1nnc(Cc2c[nH]c3ccccc23)n1Cc1ccc(Cl)c(Cl)c1 | > 10 µM | > 10 µM | –
12 | Clc1ccc(Cn2c(CCc3c[nH]c4ccccc34)nnc2C2CCNCC2)cc1Cl | > 10 µM | > 10 µM | –
13 | NCCCc1nnc(Cc2c[nH]c3ccccc23)n1Cc1ccccc1 | > 10 µM | – | –
14 | c1ccc(Cn2c(Cc3c[nH]c4ccccc34)nnc2C2CCNCC2)cc1 | > 10 µM | > 10 µM | –
15 | Clc1ccc(Cn2c(CCc3c[nH]cn3)nnc2Cc2c[nH]c3ccccc23)cc1Cl | > 10 µM | > 10 µM | –
16 | NCCCn1c(CCc2c[nH]c3ccccc23)nnc1Cc1ccc(Cl)c(Cl)c1 | 2.38 µM | > 10 µM | –
17 | c1ccc(Cn2c(CCc3c[nH]cn3)nnc2CCc2c[nH]c3ccccc23)cc1 | 4.47 µM | – | –
18 | NCCCc1nnc(CCc2c[nH]c3ccccc23)n1Cc1ccccc1 | < 10 µM | > 10 µM | –
19 | NCCCc1nnc(CCc2c[nH]c3ccccc23)n1Cc1ccc(Cl)c(Cl)c1 | > 10 µM | > 10 µM | –
20 | Cc1ccc(S(=O)(=O)N[C@@H](CCN)C(=O)N[C@@H](Cc2ccccc2)C(N)=O)c2ccccc12 | – | – | Ki [13]: > 5 µM

Reference: ChEMBL document CHEMBL4368866, “Discovery of a 3,4,5-trisubstituted-1,2,4-triazole agonist with high affinity and selectivity at the somatostatin subtype-4 (sst4) receptor” (Medchemcomm, 2018)
